Key:
human TLR4 = human TLR4 (Homo sapiens, UniProt O00206+Q9Y6Y9); test: SEAP assay, agonist dose response in human TLR4 HEK-Blue reporter cells; assay type: cell-based; parameters: host or cells: HEK-Blue (HEK293-derived) reporter cells; settings: human TLR4 HEK-Blue reporter cells
Procedure: (§1) Human and mouse HEK-Blue reporter cells express human or mouse CD14, MD2, and TLR4 and secreted embryonic alkaline phosphatase (SEAP) under control of a promoter with binding sites for NFκB and AP-1 transcription factors (InvivoGen cat. nos. hkb-htlr4 and hkb-mtlr4). Cells were cultured as directed by the supplier, with the exception that Glutamax (ThermoFisher cat. no. 10569010) was used in place of L-glutamine, and TrypLE Express (ThermoFisher cat. no. 12605010) was used to release adherent cells for each passage. BALB/c mouse RAW264.7 and human THP-1 cells (ATCC® cat. nos. TIB-71 and TIB-202) were cultured in DMEM (4.5 g/L D-Glucose with 2 mM L-glutamine, 1 mM sodium pyruvate, 100 U/ml penicillin and 100 μg/ml streptomycin) supplemented with 10% heat-inactivated FBS. THP-1 cells were exposed to phorbol-12-myristate-13-acetate (PMA, InvivoGen cat no. tlrl-pma), 5 ng/ml, for 48 h prior to treatment with TLR4 agonists. Bone marrow-derived dendritic cells (BMDCs) were generated using C57BL/6 mouse femurs following the exact method published by Lutz et al. ([29]) except that 5 rather than 20 ng/ml recombinant GM-CSF was used to differentiate the DC. Human peripheral blood […] (PBMCs) were prepared from venous blood of healthy volunteers that had been collected using sodium citrate as anti-coagulant, 20 ml of which was mixed with 15 ml calcium- and magnesium-free Hank’s Balanced Saline Solution (HBSS) and then laid over 6 ml Histopaque®-1077 (1.077 g/ml, Sigma-Aldrich cat no. 10771) for density gradient centrifugation. The buffy coat layer was collected by pipette, washed once in HBSS, once in serum-free RPMI-1640, and then the PBMCs were resuspended in RPMI-1640 supplemented with 100 U/ml penicillin, 100 µg/ml streptomycin, 1 mM Na-Pyruvate, 2 mM L-glutamine, 50 μM βME and 10% heat-inactivated, male AB human serum for culture.
(§2) SEAP assays were performed to evaluate the extent to which TLR4 signaling was activated in HEK-Blue reporter cells expressing mouse or human receptors (CD14, MD2 and TLR4). Reporter cells were harvested when 70–80% confluent and plated in 96-well, flat-bottom microtiter plates either 1 h, one day or two days (5 × 10^4, 4 × 10^4 or 2 × 10^4 cells/well, respectively) before addition of TLR4 agonists for 18–24 h. Culture supernatants were transferred to U-bottom microtiter plates, centrifuged and transferred again to microtiter plates to ensure reporter cells were not present. The culture supernatants were added to QUANTI-BLUE substrate following instructions provided by the manufacturer (InvivoGen cat. nos. rep-qbl or rep-qbs) and incubated at 37°C in a tissue culture incubator. At successive intervals beginning 10 min after mixing the supernatants and substrate, the plates were placed in an Emax plate reader (Molecular Devices LLC) and optical density was measured at visible light wavelength […] (OD650). The shortest incubations at which dose response curve fits produced maximal R^2 ‘goodness of fit’ values, as determined by GraphPad Prism software, were used for analysis.
(§3) Pharmacological profiles of the TLR4 reagents were generated by performing dose response curves in one of four formats. 1) Agonist potency and efficacy (EC50 and height of dose plateau, respectively) were measured by diluting TLR4 reagents successively in complete culture medium [DMEM or RPMI supplemented with fetal bovine serum (FBS) or RPMI supplemented with human serum, depending on cell-type]. Half-log step dilutions were performed in 96-well, U-bottom microtiter plates using a multichannel pipette to transfer and mix the suspensions, with fresh tips used for each dilution step. One-tenth (20 μl) volumes from wells of the dilution plate were then transferred to wells containing cells that had been plated in nine-tenth volumes (180 μl) of culture medium. […]

mouse TLR4 = biological target: T1, mouse TLR4 (Mus musculus, UniProt Q9JHF9+Q9QUK6); test: SEAP assay, agonist dose response in mouse TLR4 HEK-Blue reporter cells; assay type: cell-based; parameters: host or cells: HEK-Blue (HEK293-derived) reporter cells; settings: for agonist profile: mouse TLR4 HEK-Blue reporter cells
T1 sequence (Q9QUK6 26-835): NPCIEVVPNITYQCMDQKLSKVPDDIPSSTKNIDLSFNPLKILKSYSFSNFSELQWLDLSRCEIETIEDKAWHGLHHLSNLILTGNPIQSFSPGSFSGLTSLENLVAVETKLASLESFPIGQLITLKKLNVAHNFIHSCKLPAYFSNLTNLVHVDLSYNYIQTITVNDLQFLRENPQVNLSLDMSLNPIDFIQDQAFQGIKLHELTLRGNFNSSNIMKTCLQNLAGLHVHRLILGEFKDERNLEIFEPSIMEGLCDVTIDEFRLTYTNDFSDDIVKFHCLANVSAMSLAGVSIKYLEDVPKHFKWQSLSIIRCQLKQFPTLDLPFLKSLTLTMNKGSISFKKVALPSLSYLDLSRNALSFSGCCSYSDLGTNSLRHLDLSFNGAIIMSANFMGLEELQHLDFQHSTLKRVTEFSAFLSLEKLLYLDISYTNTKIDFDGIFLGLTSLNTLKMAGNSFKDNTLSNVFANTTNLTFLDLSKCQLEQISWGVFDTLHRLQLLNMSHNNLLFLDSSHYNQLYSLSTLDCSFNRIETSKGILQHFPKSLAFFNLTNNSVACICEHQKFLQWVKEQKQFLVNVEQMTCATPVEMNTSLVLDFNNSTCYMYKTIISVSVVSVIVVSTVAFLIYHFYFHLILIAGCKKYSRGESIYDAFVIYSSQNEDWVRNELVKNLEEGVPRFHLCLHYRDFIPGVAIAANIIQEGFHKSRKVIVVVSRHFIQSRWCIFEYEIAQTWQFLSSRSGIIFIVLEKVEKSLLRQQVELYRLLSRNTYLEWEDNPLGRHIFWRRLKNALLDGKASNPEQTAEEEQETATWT
T1 sequence (Q9JHF9 19-160): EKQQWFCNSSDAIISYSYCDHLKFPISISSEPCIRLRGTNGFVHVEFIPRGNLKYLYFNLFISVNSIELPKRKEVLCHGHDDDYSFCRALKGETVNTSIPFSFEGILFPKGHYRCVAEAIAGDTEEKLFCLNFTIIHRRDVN
Procedure: as §1, §2, §3

human TLR4, sequence (O00206 24-839): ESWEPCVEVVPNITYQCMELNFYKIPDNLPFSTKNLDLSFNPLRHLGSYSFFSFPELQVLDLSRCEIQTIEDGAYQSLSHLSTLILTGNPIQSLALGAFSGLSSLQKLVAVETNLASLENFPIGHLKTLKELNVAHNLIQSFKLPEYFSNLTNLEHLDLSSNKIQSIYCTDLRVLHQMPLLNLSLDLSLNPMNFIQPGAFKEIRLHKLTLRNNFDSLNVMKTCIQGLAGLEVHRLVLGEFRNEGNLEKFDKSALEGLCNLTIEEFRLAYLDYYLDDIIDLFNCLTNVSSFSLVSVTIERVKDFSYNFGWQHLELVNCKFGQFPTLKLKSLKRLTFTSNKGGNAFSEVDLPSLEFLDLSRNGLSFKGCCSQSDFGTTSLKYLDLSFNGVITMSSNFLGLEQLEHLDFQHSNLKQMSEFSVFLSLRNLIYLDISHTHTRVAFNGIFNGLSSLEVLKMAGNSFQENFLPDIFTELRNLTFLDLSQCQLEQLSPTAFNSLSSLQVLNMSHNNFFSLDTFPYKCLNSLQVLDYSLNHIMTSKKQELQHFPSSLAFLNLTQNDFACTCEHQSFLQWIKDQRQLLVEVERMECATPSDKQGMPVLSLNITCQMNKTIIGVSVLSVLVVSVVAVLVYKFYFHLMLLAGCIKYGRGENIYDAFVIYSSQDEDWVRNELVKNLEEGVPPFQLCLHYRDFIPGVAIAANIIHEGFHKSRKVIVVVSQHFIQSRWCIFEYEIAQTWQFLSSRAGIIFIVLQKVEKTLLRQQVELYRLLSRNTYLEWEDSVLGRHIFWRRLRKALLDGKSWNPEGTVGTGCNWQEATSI
human TLR4, sequence (Q9Y6Y9 17-160 limits assumed): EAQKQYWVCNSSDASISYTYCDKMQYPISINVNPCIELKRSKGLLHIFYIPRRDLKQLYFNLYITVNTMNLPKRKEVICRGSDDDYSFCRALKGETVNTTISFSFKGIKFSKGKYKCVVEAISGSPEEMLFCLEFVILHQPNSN

Row | SMILES | agonist profile (human TLR4) | agonist profile (mouse TLR4) | efficacy relative to the full agonist PHAD (mouse TLR4; mouse TLR4 HEK-Blue, 100% = top dose plateau of PHAD) [%]
1 | CCCCCCCCCCCCCCCC(=O)OC(CCCCCCCCCCC)CC(=O)NC1C(O)OC(COC2OC(CO)C(OP(=O)(O)O)C(O)C2NC(=O)CC(CCCCCCCCCCC)OC(=O)CCCCCCCCCCC)C(O)C1O (stereo not shown) [ML4B] | largely inactive | largely inactive | 
2 | CCCCCCCCCCCC(=O)OC(CCCCCCCCCCC)CC(=O)NC1C(OCC2OC(O)C(NC(=O)CC(O)CCCCCCCCCCC)C(O)C2O)OC(CO)C(OP(=O)(O)O)C1O (stereo not shown) [ML3] | largely inactive | largely inactive | 
3 | CCCCCCCCCCCC(=O)OC(CCCCCCCCCCC)CC(=O)NC1C(OCC2OC(O)C(NC(=O)CC(O)CCCCCCCCCCC)C(O)C2O)OC(CO)C(OP(=O)(O)O)C1OC(=O)CC(O)CCCCCCCCCCC (stereo not shown) [ML4A] | all but inactive | agonist only of mouse TLR4 | ~80
